# Laboratory results: patent US20240254143A1, “OREXIN RECEPTOR AGONISTS AND USES THEREOF” (JAZZ PHARMACEUTICALS IRELAND LIMITED, priority 2021, published 2024)
# Molecular target: T1, human recombinant OX2 (hOX2) receptor (Homo sapiens, UniProt O43614)
# T1 construct: host or cells: CHO cells
# T1 sequence (O43614 1-444): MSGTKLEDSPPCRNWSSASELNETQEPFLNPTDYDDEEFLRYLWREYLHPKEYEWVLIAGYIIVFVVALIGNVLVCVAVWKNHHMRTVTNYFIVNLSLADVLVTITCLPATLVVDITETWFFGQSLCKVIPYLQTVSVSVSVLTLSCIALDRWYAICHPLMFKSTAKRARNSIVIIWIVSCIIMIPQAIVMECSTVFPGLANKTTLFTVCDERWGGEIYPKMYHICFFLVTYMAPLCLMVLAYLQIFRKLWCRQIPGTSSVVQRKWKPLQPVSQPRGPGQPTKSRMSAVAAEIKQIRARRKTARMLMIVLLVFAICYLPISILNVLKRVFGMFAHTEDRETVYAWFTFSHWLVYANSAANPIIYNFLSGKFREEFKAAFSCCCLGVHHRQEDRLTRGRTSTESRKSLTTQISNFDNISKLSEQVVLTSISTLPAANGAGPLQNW
# Test: IP-1 accumulation assay (IP-One HTRF) in hOX2-CHO cells
# Format: cell-based
# Conditions: 60 min at 37° C., mean of at least two independent experiments, read-out: EC50_OX2R Category
# Description: Example 94: IP-1 Accumulation Assay
# The accumulation of Inositol-1 Monophosphate (IP-1) was measured using IP-One HTRF® Terbium cryptate based assay (Cisbio) in human recombinant OX1 (hOX1) and at OX2 (hOX2) receptors expressed in CHO cells (DiscoverX) according to the manufacturer's instructions for cells tested in suspension.
# hOX1-CHO and hOX2-CHO cells were seeded into white 384-well plates at a density of 20,000 cells/well in Hank's Balanced Salt Solution (HBSS) containing 20 mM HEPES pH 7.4, 50 mM, LiCl and 0.1% and Bovine Serum Albumin (BSA).
# Compounds of the present disclosure were tested in a 11 points concentration response curve (CRC) serially diluted in neat DMSO at 200 fold concentrations and added by Echo acoustic liquid handling (Labcyte) to the cells (0.5% DMSO final in the assay). After 60 min of incubation at 37° C. detection reagents, IP1-d2 tracer and anti-IP1-cryptate were diluted in lysis buffer according to the manufacturer's descriptions and added to the cells.
# Following 60 mi incubation at room temperature, time-resolved fluorescence (HTRF) was measured at 615 nm and 665 nm by Envision Multilabel reader (Perkin Elmer) and the HTRF ratio (A665/A615×10^4) was calculated.
# The IP-1 accumulation response was expressed as percentage of the maximal OX-A response.
# Curve fitting and EC50 estimations were carried out using a four-parameter logistic model using XLfit Software. Mean data of EC50 are calculated from at least two independent experiments performed in duplicates.
row,EC50,Structure (SMILES)
1,< 0.1 µM,"CCNC(=O)N1CCCC2(CCCC(=O)N2)C1CO[C@H]1CC[C@@H](c2ccccc2)CC1 (mixture of isomers) [Example 33, rel-(6S,7R)-N-ethyl-2-oxo-7-({[(CIS)-4-phenylcyclohexyl]oxy}methyl)-1,8-diazaspiro[5.5]undecane-8-carboxamide]"
2,0.1 to 1 µM,"CCNC(=O)N1CCCC2(COCCS(=O)(=O)N2)C1CO[C@H]1CC[C@@H](c2ccccc2)CC1 (mixture of isomers) [Example 38, rel-(1R,6S)-N-ethyl-8,8-dioxo-1-({[(CIS)-4-phenylcyclohexyl]oxy}methyl)-11-oxa-8λ^6-thia-2,7-diazaspiro[5.6]dodecane-2-carboxamide]"
3,< 0.1 µM,"CCNC(=O)N1CCC[C@@]2(COCCC(=O)N2)[C@@H]1CO[C@H]1CC[C@@H](c2ccccc2)CC1 (relative stereo) [Example 55, rel-(1R,6S)-N-ethyl-8-oxo-1-({[(CIS)-4-phenylcyclohexyl]oxy}methyl)-11-oxa-2,7-diazaspiro[5.6]dodecane-2-carboxamide]"
4,1 to 10 µM,"CCNC(=O)N1C[C@@H](C)C2(COCC(=O)N2)C1Cc1cccc(-c2cc(F)cc(F)c2)c1F (mixture of isomers) [Example 70, rel-(1S,5S)-(4S)-N-ethyl-4-methyl-7-oxo-1-({2,3′,5′-trifluoro-[1,1′-biphenyl]-3-yl}methyl)-9-oxa-2,6-diazaspiro[4.5]decane-2-carboxamide]"
5,0.1 to 1 µM,"O=C1NC2(CCCN(C(=O)OCC(F)F)C2CO[C@H]2CC[C@@H](c3ccccc3)CC2)CCO1 (mixture of isomers) [Example 65, 2,2-difluoroethyl-rel-(6R,7R)-2-oxo-7-({[(CIS)-4-phenylcyclohexyl]oxy}methyl)-3-oxa-1,8-diazaspiro[5.5] undecane-8-carboxylate]"
6,0.1 to 1 µM,"CCNC(=O)N1CC[C@@]2(COCC(=O)N2)[C@@H]1CO[C@H]1CC[C@@H](c2ccccc2)CC1 (single isomer, unassigned) [Example 16]"
7,> 10 µM,"CN1CCC2(CCCN(C(=O)OCC(F)F)C2CO[C@H]2CC[C@@H](c3ccccc3)CC2)NC1=O (mixture of isomers) [Example 57, 2,2-difluoroethyl-rel-(6R,7R)-3-methyl-2-oxo-7-({[(CIS)-4-phenylcyclohexyl]oxy}methyl)-1,3,8-triazaspiro [5.5]undecane-8-carboxylate]"
8,< 0.1 µM,"CCNC(=O)N1CCC(F)(F)[C@@]2(CCOC(=O)N2)[C@@H]1CO[C@H]1CC[C@@H](c2ccccc2)CC1 (single isomer, unassigned) [Example 45]"
9,0.1 to 1 µM,"O=C1COCC2(CCCN(C(=O)C3CC3)C2CO[C@H]2CC[C@@H](c3ccccc3)CC2)N1 (mixture of isomers) [Example 7, (CIS)-8-cyclopropanecarbonyl-7-({[(CIS)-4-phenylcyclohexyl]oxy}methyl)-4-oxa-1,8-diazaspiro[5.5]undecan-2-one]"

# Continued, molecule first:
row,Structure (SMILES),EC50
1,"CCNC(=O)N1CCC[C@@]2(COC(C)C(=O)N2)[C@@H]1CO[C@H]1CC[C@@H](c2ccccc2)CC1 (single isomer, unassigned) [Example 40]",< 0.1 µM
2,"C[C@@H]1C[C@@]2(COCC(=O)N2)[C@H](Cc2cccc(-c3cc(F)cc(F)c3)c2F)N1C(=O)C(C)(C)O [Example 54, (1S,3R,5S)-2-(2-hydroxy-2-methylpropanoyl)-3-methyl-1-({2,3′,5′-trifluoro-[1,1′-biphenyl]-3-yl}methyl)-9-oxa-2,6-diazaspiro[4.5]decan-7-one]",0.1 to 1 µM
3,"COC(=O)N1CCCC2(CCOC(=O)N2)C1Cc1cccc(-c2ccccc2)c1 (stereo not shown) [Example 19, Methyl 7-({[1,1′-biphenyl]-3-yl}methyl)-2-oxo-3-oxa-1,8-diazaspiro[5.5]undecane-8-carboxylate]",> 10 µM
4,"COCCNC(=O)N1[C@H](C)C[C@@]2(COCC(=O)N2)[C@@H]1CO[C@H]1CC[C@@H](c2ccccc2)CC1 [Example 51, (1R,3R,5S)-N-(2-methoxyethyl)-3-methyl-7-oxo-1-({[(CIS)-4-phenylcyclohexyl]oxy}methyl)-9-oxa-2,6-diazaspiro[4.5]decane-2-carboxamide]",< 0.1 µM
5,"CCNC(=O)N1CCC[C@]2(CCOC(=O)N2)[C@H]1Cc1cccc(-c2ccccc2)c1 [Example 26, (6S,7R)-7-({[1,1′-biphenyl]-3-yl}methyl)-N-ethyl-2-oxo-3-oxa-1,8-diazaspiro[5.5]undecane-8-carboxamide]",> 10 µM
6,"CCNC(=O)N1CCC[C@]2(COC(F)C(=O)N2)[C@H]1CO[C@H]1CC[C@@H](c2ccccc2)CC1 (single isomer, unassigned) [Example 42]",1 to 10 µM
7,"C[C@@H]1C[C@@]2(COCC(=O)N2)[C@H](Cc2cccc(-c3cc(F)cc(F)c3)c2F)N1C(=O)C1CC1F (single isomer, unassigned) [Example 91]",0.1 to 1 µM
8,"C[C@@H]1C[C@@]2(COCC(=O)N2)[C@H](CO[C@H]2CC[C@@H](c3ccccc3)CC2)N1C(=O)NCC(F)F [Example 50, (1R,3R,5S)-N-(2,2-difluoroethyl)-3-methyl-7-oxo-1-({[(CIS)-4-phenylcyclohexyl]oxy}methyl)-9-oxa-2,6-diazaspiro[4.5]decane-2-carboxamide]",< 0.1 µM
9,"C[C@@H]1C[C@@]2(COCC(=O)N2)[C@H](Cc2cccc(-c3cc(F)cc(F)c3)c2F)N1S(C)(=O)=O [Example 93, (1S,3R,5S)-2-methanesulfonyl-3-methyl-1-({2,3′,5′-trifluoro-[1,1′-biphenyl]-3-yl}methyl)-9-oxa-2,6-diazaspiro[4.5]decan-7-one]",> 10 µM
10,"CCNC(=O)N1CCC[C@@]2(CCOC(=O)N2)[C@@H]1CO[C@H]1CC[C@@H](c2ccccc2)CC1 (single isomer, unassigned) [Example 14]",< 0.1 µM
11,"C[C@@H]1C[C@@]2(COCC(=O)N2)[C@H](CO[C@H]2CC[C@@H](c3ccccc3)CC2)N1C(=O)OCC(F)F [Example 61, 2,2-difluoroethyl (1R,3R,5S)-3-methyl-7-oxo-1-({[(CIS)-4-phenylcyclohexyl]oxy}methyl)-9-oxa-2,6-diazaspiro [4.5]decane-2-carboxylate]",< 0.1 µM
12,"CCNC(=O)N1CCC[C@@]2(CCOC(=O)N2)[C@H]1Cc1cccc(-c2ccccc2)c1 (racemic) [Example 25, (Trans)-7-({[1,1′-biphenyl]-3-yl}methyl)-N-ethyl-2-oxo-3-oxa-1,8-diazaspiro[5.5]undecane-8-carboxamide]",> 10 µM
13,"COC(=O)N1[C@H](C)C[C@@]2(COCC(=O)N2)[C@@H]1Cc1cccc(-c2cc(F)cc(F)c2)c1F [Example 85, Methyl (1S,3R,5S)-3-methyl-7-oxo-1-({2,3′,5′-trifluoro-[1,1′-biphenyl]-3-yl}methyl)-9-oxa-2,6-diazaspiro[4.5]decane-2-carboxylate]",> 10 µM
14,"C[C@@H]1C[C@@]2(COCC(=O)N2)[C@H](Cc2cccc(-c3cc(F)cc(F)c3)c2F)N1C(=O)C1CC(F)(F)C1 [Example 86, (1S,3R,5S)-2-(3,3-difluorocyclobutanecarbonyl)-3-methyl-1-({2,3′,5′-trifluoro-[1,1′-biphenyl]-3-yl}methyl)-9-oxa-2,6-diazaspiro[4.5]decan-7-one]",0.1 to 1 µM
15,"CCNC(=O)N1CCC[C@]2(COC(C)C(=O)N2)[C@H]1CO[C@H]1CC[C@@H](c2ccccc2)CC1 (single isomer, unassigned) [Example 39]",> 10 µM
16,"O=C1COCC2(CCCN(C(=O)[C@H]3C[C@@H](F)C3)C2COC2CCN(c3ncc(F)cn3)CC2)N1 (mixture of isomers) [Example 78, rel-(6S,7R)-8-(3-fluorocyclobutanecarbonyl)-7-({[1-(5-fluoropyrimidin-2-yl)piperidin-4-yl]oxy}methyl)-4-oxa-1,8-diazaspiro[5.5]undecan-2-one]",0.1 to 1 µM
17,"CCNC(=O)N1CCC[C@@]2(CCOC(=O)N2)[C@@H]1Cc1cccc(-c2ccccc2)c1 (racemic) [Example 24, (CIS)-7-({[1,1′-biphenyl]-3-yl}methyl)-N-ethyl-2-oxo-3-oxa-1,8-diazaspiro[5.5]undecane-8-carboxamide]",1 to 10 µM
18,"CCNC(=O)N1CCC[C@@]2(COC(F)C(=O)N2)[C@@H]1CO[C@H]1CC[C@@H](c2ccccc2)CC1 (single isomer, unassigned) [Example 43]",< 0.1 µM
19,"CN1CC(=O)NC2(CCCN(C(=O)OCC(F)F)C2CO[C@H]2CC[C@@H](c3ccccc3)CC2)C1 (mixture of isomers) [Example 56, 2,2-difluoroethyl-rel-(6R,7R)-4-methyl-2-oxo-7-({[(CIS)-4-phenylcyclohexyl]oxy}methyl)-1,4,8-triazaspiro [5.5]undecane-8-carboxylate]",0.1 to 1 µM
